Reference: PubChem BioAssay AID192 (DTP/NCI, 2004)
“And” between values parts separate entries of the source, which are not always exact repeats. Identical values can stand only once. Toxic doses and inconclusive results are not listed. How the source made its calls: active means survival T/C of 150% or more; inactive means T/C below 125% in these data.

Tested on: BDF1 mice, B16 melanoma ip, median survival T/C
Assay: NCI In Vivo Anticancer Drug Screen. Data for tumor model B16 Melanoma (intraperitoneal) in B6D2F1 (BDF1) mice
Conditions: endpoint: median survival time, higher = longer survival
Protocol: The antitumor activity of compounds was measured in mice bearing transplantable tumors. Survival or tumor size were measured and the results are expressed as the measurement made in the treated group (T) divided by the measurement made in the vehicle treated control group (C). The tumor model used in this assay is B16 Melanoma (intraperitoneal) in B6D2F1 (BDF1) mice

[1] = dose: 100.0 mg/kg/injection, schedule: Q01DX009 (ip), vehicle: saline
[2] = dose: 100.0 mg/kg/injection, schedule: Q01DX009 (ip), vehicle: saline with Tween-80
[3] = dose: 200.0 mg/kg/injection, schedule: Q01DX009 (ip), vehicle: saline with Tween-80
[4] = dose: 12.5 mg/kg/injection, schedule: Q01DX009 (ip), vehicle: saline with Tween-80
[5] = dose: 25.0 mg/kg/injection, schedule: Q01DX009 (ip), vehicle: saline with Tween-80
[6] = dose: 25.0 mg/kg/injection, schedule: Q01DX009 (ip), vehicle: saline
[7] = dose: 50.0 mg/kg/injection, schedule: Q01DX009 (ip), vehicle: saline
[8] = dose: 3.12 mg/kg/injection, schedule: Q01DX009 (ip), vehicle: Klucel (hydroxypropylcellulose) (HPC)
[9] = dose: 50.0 mg/kg/injection, schedule: Q01DX009 (ip), vehicle: saline with Tween-80
[10] = dose: 6.25 mg/kg/injection, schedule: Q01DX009 (ip), vehicle: Klucel (hydroxypropylcellulose) (HPC)
[11] = dose: 12.5 mg/kg/injection, schedule: Q01DX009 (ip), vehicle: Klucel (hydroxypropylcellulose) (HPC)
[12] = dose: 25.0 mg/kg/injection, schedule: Q01DX009 (ip), vehicle: Klucel (hydroxypropylcellulose) (HPC)

Measured: T/C

CCO
inactive: dose: 250.0 mg/kg/injection, schedule: Q01DX009 (ip), vehicle: saline 109 % of control | dose: 500.0 mg/kg/injection, schedule: Q01DX009 (ip), vehicle: saline 86 % of control | dose: 1000.0 mg/kg/injection, schedule: Q01DX009 (ip), vehicle: saline 104 % of control | dose: 2000.0 mg/kg/injection, schedule: Q01DX009 (ip), vehicle: saline 93 % of control

CCCCCn1c(C)cc(/C=C\c2ccc3cc(C)ccc3[n+]2C)c1C
inactive: dose: 0.62 mg/kg/injection, schedule: Q01DX009 (ip), vehicle: Klucel (hydroxypropylcellulose) (HPC) 93 % of control | dose: 1.25 mg/kg/injection, schedule: Q01DX009 (ip), vehicle: Klucel (hydroxypropylcellulose) (HPC) 87 % of control

CCOP(=O)(CCCCN1C(=O)c2ccccc2C1=O)OCC
inactive: [1] 104 % of control | dose: 200.0 mg/kg/injection, schedule: Q01DX009 (ip), vehicle: saline 96 % of control | dose: 400.0 mg/kg/injection, schedule: Q01DX009 (ip), vehicle: saline 103 % of control

O=C1/C(=C\c2ccc([N+](=O)[O-])cc2)CS(=O)(=O)C/C1=C/c1ccc([N+](=O)[O-])cc1
inactive: dose: 50.0 mg/kg/injection, schedule: Q01DX009 (ip), vehicle: Klucel (hydroxypropylcellulose) (HPC) 91 % of control | dose: 100.0 mg/kg/injection, schedule: Q01DX009 (ip), vehicle: Klucel (hydroxypropylcellulose) (HPC) 97 % of control | dose: 200.0 mg/kg/injection, schedule: Q01DX009 (ip), vehicle: Klucel (hydroxypropylcellulose) (HPC) 102 % of control

CC(=O)/C(C)=C\c1ccccc1
inactive: [2] 102 % of control | [3] 95 % of control | dose: 400.0 mg/kg/injection, schedule: Q01DX009 (ip), vehicle: saline with Tween-80 86 % of control

c1cc(NC2CCCCC2)ccc1CN1CCOCC1
inactive: dose: 12.5 mg/kg/injection, schedule: Q01DX009 (ip), vehicle: saline + Tween-80 + alcohol 100 % of control and 104 % of control | dose: 25.0 mg/kg/injection, schedule: Q01DX009 (ip), vehicle: saline + Tween-80 + alcohol 91 % of control and 102 % of control | dose: 50.0 mg/kg/injection, schedule: Q01DX009 (ip), vehicle: saline + Tween-80 + alcohol 91 % of control and 97 % of control | dose: 100.0 mg/kg/injection, schedule: Q01DX009 (ip), vehicle: saline + Tween-80 + alcohol 88 % of control and 97 % of control | dose: 200.0 mg/kg/injection, schedule: Q01DX009 (ip), vehicle: saline + Tween-80 + alcohol 88 % of control and 89 % of control | dose: 400.0 mg/kg/injection, schedule: Q01DX009 (ip), vehicle: saline + Tween-80 + alcohol 95 % of control

CSC(=S)N/N=C/c1ccccn1
inactive: dose: 0.75 mg/kg/injection, schedule: Q01DX009 (ip), vehicle: saline with Tween-80 86 % of control | dose: 1.5 mg/kg/injection, schedule: Q01DX009 (ip), vehicle: saline with Tween-80 89 % of control | dose: 3.0 mg/kg/injection, schedule: Q01DX009 (ip), vehicle: saline with Tween-80 86 % of control | dose: 6.0 mg/kg/injection, schedule: Q01DX009 (ip), vehicle: saline with Tween-80 94 % of control | [4] 110 % of control | [5] 105 % of control

CC(N)Cc1cn(C)c2ccccc12 (stereo unspecified)
inactive: dose: 6.25 mg/kg/injection, schedule: Q01DX009 (ip), vehicle: saline 122 % of control | dose: 12.5 mg/kg/injection, schedule: Q01DX009 (ip), vehicle: saline 105 % of control | [6] 102 % of control | [7] 105 % of control | [1] 88 % of control

CCOC(=O)Nc1cccc2ccccc12
inactive: dose: 100.0 mg/kg/injection, schedule: Q04DX003 (ip), vehicle: Klucel (hydroxypropylcellulose) (HPC) 102 % of control | dose: 200.0 mg/kg/injection, schedule: Q04DX003 (ip), vehicle: Klucel (hydroxypropylcellulose) (HPC) 105 % of control | dose: 400.0 mg/kg/injection, schedule: Q04DX003 (ip), vehicle: Klucel (hydroxypropylcellulose) (HPC) 102 % of control

NC(CCl)=NCC12CC3CC(CC(C3)C1)C2
inactive: dose: 3.0 mg/kg/injection, schedule: Q01DX009 (ip), vehicle: Klucel (hydroxypropylcellulose) (HPC) 110 % of control | [8] 100 % of control | dose: 6.0 mg/kg/injection, schedule: Q01DX009 (ip), vehicle: Klucel (hydroxypropylcellulose) (HPC) 100 % of control | dose: 12.0 mg/kg/injection, schedule: Q01DX009 (ip), vehicle: Klucel (hydroxypropylcellulose) (HPC) 107 % of control | dose: 24.0 mg/kg/injection, schedule: Q01DX009 (ip), vehicle: Klucel (hydroxypropylcellulose) (HPC) 102 % of control | dose: 48.0 mg/kg/injection, schedule: Q01DX009 (ip), vehicle: Klucel (hydroxypropylcellulose) (HPC) 120 % of control

CC1=CCC(C(C)(C)c2ccc(O)cc2)CC1 (stereo unspecified)
inactive: dose: 6.25 mg/kg/injection, schedule: Q01DX009 (ip), vehicle: saline with Tween-80 96 % of control | [4] 105 % of control | [5] 102 % of control and 106 % of control

C1CCN(CCC2CCNCC2)CC1
inactive: [6] 109 % of control | [7] 90 % of control

C/C=C/CC(C/C=C/C)C1CC[N-]CC1.C/C=C/CC(C/C=C/C)C1CC[N-]CC1.[Cl][Pt+2]([Cl])([Cl])[Cl]
inactive: dose: 1.56 mg/kg/injection, schedule: Q01DX009 (ip), vehicle: other 97 % of control | dose: 3.13 mg/kg/injection, schedule: Q01DX009 (ip), vehicle: other 97 % of control | dose: 6.25 mg/kg/injection, schedule: Q01DX009 (ip), vehicle: other 100 % of control | dose: 12.5 mg/kg/injection, schedule: Q01DX009 (ip), vehicle: other 97 % of control | dose: 25.0 mg/kg/injection, schedule: Q01DX009 (ip), vehicle: other 96 % of control

O=S(=O)(c1ccccc1)N1CN2CCN(C2)C1
inactive: [4] 89 % of control | [5] 98 % of control | [9] 99 % of control | [2] 100 % of control | [3] 103 % of control

CC12CCC(C1)C(C)(C)C2NCCCN1C(=O)c2ccc3c4c(ccc(c24)C1=O)C(=O)N(CCCNC1C2(C)CCC(C2)C1(C)C)C3=O (stereo unspecified)
inactive: [10] 100 % of control | [11] 96 % of control | [12] 106 % of control and 109 % of control

C=C(Br)CNC(=O)CCC
inactive: dose: 2.5 mg/kg/injection, schedule: Q01DX009 (ip), vehicle: saline 103 % of control | dose: 5.0 mg/kg/injection, schedule: Q01DX009 (ip), vehicle: saline 112 % of control | dose: 10.0 mg/kg/injection, schedule: Q01DX009 (ip), vehicle: saline 104 % of control

CC[n+]1c(C)ccc2ccccc21
inactive: dose: 25.0 mg/kg/injection, schedule: Q01DX009 (ip), vehicle: carboxymethylcellulose (CMC) 112 % of control | dose: 50.0 mg/kg/injection, schedule: Q01DX009 (ip), vehicle: carboxymethylcellulose (CMC) 96 % of control

Cc1cc(N)c2cc(NC(=O)CCCCCC(=O)Nc3ccc4nc(C)cc(N)c4c3)ccc2n1
inactive: [4] 90 % of control | [5] 98 % of control | [9] 110 % of control

O=C(CCCN1CCC(n2c(=O)[nH]c3ccccc32)CC1)c1ccc(F)cc1
inactive: dose: 0.78 mg/kg/injection, schedule: Q01DX009 (ip), vehicle: Klucel (hydroxypropylcellulose) (HPC) 121 % of control | [8] 86 % of control | [10] 92 % of control | [11] 89 % of control | [12] 89 % of control and 94 % of control

CC(=O)Nc1ccc2c(c1)C[N+](C)(C1CCCCC1)CO2 (stereo unspecified)
inactive: [4] 106 % of control | [5] 113 % of control

C[C@@H]1CN1C1=CC(=O)C(N2C[C@H]2C)=CC1=O
inactive: dose: 0.25 mg/kg/injection, schedule: Q01DX009 (ip), vehicle: saline 104 % of control | dose: 0.5 mg/kg/injection, schedule: Q01DX009 (ip), vehicle: saline 95 % of control
